In ChEMBL document CHEMBL4765482, “Novel Sigma 1 Receptor Antagonists as Potential Therapeutics for Pain Management” (J Med Chem, 2021):
Active and inactive are the calls of the source.

Tests used:
[1] = Metabolic stability in human liver microsomes assessed as half-life at 10 uM incubated for 1 hr in presence of NADPH by LC-MS/MS analysis; assay type: ADME, Microsome
[2] = Intrinsic clearance in rat liver microsomes at 10 uM incubated for 1 hr in presence of NADPH by LC-MS/MS analysis; assay type: ADME, Microsome; details: read-out: CLH
[3] = Intrinsic clearance in human liver microsomes at 10 uM incubated for 1 hr in presence of NADPH by LC-MS/MS analysis; assay type: ADME, Microsome; details: read-out: CLH
[4] = Metabolic stability in rat liver microsomes assessed as half-life at 10 uM incubated for 1 hr in presence of NADPH by LC-MS/MS analysis; assay type: ADME, Microsome
[5] = target: T1, Sigma intracellular receptor 2 (Homo sapiens, UniProt Q5BJF2); assay: Displacement of [3H]-DTG from sigma-2 receptor in human Jurkat cell membrane incubated for 1 hr by liquid scintillation counting method; assay type: cell membranes
T1 sequence (Q5BJF2 whole entry): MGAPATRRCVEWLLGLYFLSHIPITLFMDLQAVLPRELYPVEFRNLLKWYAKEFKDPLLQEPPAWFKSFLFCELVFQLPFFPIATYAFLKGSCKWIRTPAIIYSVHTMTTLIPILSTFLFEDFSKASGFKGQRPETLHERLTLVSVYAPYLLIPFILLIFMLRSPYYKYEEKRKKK

[6] = target: T2, Sigma non-opioid intracellular receptor 1 (Homo sapiens, UniProt Q99720); assay: Displacement of [3H]-pentazocine from sigma-1 receptor in human Jurkat cell membrane at 100 nM incubated for 2 hr by liquid scintillation counting method relative to control; assay type: cell membranes
T2 sequence (Q99720 whole entry): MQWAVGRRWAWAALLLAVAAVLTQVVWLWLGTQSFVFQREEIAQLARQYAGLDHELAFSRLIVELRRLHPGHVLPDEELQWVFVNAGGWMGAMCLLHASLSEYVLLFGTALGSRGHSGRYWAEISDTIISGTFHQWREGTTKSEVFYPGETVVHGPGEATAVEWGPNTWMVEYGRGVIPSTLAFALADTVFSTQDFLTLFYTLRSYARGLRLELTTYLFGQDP

[7] = Displacement of [3H]-DTG from sigma-2 receptor in guinea pig brain membrane incubated for 1 hr by liquid scintillation counting method; assay type: cell membranes, Cavia porcellus
[8] = target: T3, Sigma non-opioid intracellular receptor 1 (Cavia porcellus, UniProt Q60492); assay: Displacement of [3H]-(+)-pentazocine from sigma-1 receptor in guinea pig brain membranes incubated for 1 hr by liquid scintillation counting method; assay type: cell membranes, Membrane
T3 sequence (Q60492 whole entry): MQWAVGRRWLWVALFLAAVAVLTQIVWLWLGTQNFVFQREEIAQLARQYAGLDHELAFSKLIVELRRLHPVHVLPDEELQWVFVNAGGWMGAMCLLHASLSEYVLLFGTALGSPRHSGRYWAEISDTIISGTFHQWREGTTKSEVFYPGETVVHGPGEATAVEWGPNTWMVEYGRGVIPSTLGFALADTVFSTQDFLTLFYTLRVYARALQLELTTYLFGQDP

[9] = target: T2, Sigma non-opioid intracellular receptor 1; assay: Displacement of [3H]-pentazocine from sigma-1 receptor in human Jurkat cell membrane incubated for 2 hr by liquid scintillation counting method; assay type: cell membranes
[10] = target: T1, Sigma intracellular receptor 2; assay: Displacement of [3H]-DTG from sigma-2 receptor in human Jurkat cell membrane at 1000 nM incubated for 1 hr by liquid scintillation counting method relative to control; assay type: cell membranes; details: filed as antagonist
[11] = Cmax in Sprague-Dawley rat plasma at 10 mg/kg, ip measured after 0.25 to 4 hrs by LC-MS/MS analysis; assay type: ADME, organism-based; parameters: route intraperitoneal, time upper 4 hrs, time lower 0.25 hrs, dose 10 mg/kg
hERG (KCNH2) = hERG (KCNH2) (Homo sapiens, UniProt Q12809); assay: Binding affinity to human ERG at 1 uM relative to control; assay type: cell-based; details: HEK293 cells, read-out: Activity
Chain of hERG (KCNH2) (Q12809 whole entry): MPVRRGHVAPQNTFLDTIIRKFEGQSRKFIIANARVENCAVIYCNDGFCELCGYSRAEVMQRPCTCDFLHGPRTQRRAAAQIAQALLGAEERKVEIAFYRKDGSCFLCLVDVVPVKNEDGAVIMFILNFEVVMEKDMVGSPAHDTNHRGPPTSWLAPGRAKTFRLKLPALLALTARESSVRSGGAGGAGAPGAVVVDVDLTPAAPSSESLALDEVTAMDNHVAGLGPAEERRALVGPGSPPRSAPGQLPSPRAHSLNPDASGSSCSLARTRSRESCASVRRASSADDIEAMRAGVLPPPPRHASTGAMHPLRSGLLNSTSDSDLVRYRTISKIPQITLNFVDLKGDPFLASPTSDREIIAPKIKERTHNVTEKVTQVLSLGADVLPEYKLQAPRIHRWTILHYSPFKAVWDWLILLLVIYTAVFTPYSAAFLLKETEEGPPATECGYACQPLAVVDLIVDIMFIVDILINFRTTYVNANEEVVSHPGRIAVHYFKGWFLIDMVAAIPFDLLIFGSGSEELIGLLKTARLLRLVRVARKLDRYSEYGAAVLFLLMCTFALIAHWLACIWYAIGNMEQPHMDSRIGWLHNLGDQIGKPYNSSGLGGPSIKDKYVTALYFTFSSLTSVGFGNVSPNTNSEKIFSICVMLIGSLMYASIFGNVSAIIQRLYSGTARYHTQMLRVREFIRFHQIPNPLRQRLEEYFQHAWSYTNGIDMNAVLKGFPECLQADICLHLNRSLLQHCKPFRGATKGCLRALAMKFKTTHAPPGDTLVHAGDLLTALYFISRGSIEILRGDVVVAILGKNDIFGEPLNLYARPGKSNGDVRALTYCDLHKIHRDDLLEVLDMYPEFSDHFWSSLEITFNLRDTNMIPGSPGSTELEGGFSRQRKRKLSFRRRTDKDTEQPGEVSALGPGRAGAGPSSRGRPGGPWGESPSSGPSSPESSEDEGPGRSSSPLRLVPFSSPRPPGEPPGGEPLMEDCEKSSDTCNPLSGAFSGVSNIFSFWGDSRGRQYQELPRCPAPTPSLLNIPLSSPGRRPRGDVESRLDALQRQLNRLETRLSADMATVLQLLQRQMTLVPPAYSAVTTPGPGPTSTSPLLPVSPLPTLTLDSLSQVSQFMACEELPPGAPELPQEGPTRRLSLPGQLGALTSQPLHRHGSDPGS

[12] = target: T3, Sigma non-opioid intracellular receptor 1
[13] = target: Delta-type opioid receptor (Homo sapiens) (UniProt P41143); assay: Displacement of [3H]-Naltrindole from recombinant human full-length delta opiod receptor expressed in human HEK293 cells at 1 uM incubated for 60 mins by scintillation counting method; assay type: cell-based
Chain of Delta-type opioid receptor (Homo sapiens) (P41143 whole entry): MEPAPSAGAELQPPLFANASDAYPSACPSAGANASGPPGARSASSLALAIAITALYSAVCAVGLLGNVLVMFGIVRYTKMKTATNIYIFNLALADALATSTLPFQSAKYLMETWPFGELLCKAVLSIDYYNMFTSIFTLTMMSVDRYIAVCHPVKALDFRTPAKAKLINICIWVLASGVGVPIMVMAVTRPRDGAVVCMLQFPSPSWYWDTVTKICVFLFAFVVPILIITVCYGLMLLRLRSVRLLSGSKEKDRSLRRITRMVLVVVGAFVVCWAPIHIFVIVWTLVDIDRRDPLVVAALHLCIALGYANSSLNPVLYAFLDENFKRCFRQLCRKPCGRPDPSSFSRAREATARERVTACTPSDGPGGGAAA

Rattus norvegicus [14] = assay: Analgesic activity in Sprague-Dawley rat model of paclitaxel-induced neuropathic pain assessed as decrease in mechanical allodynia by measuring reduction in pain threshold at 20 mg/kg, ip measured at 0.5 to 1.5 hrs by Von Frey assay relative to control; assay type: functional; parameters: scale not given: the % may be the effect or the level left; details: time 0.5-1.5 hrs
[15] = Half life in Sprague-Dawley rat plasma at 10 mg/kg, ip measured after 0.25 to 4 hrs by LC-MS/MS analysis; assay type: ADME, organism-based; details: time 0.25-4 hrs
[16] = target: Kappa-type opioid receptor (Homo sapiens) (UniProt P41145); assay: Displacement of [3H]-Diprenorphine from recombinant human full-length kappa opiod receptor expressed in human HEK293 cells at 1 uM incubated for 60 mins by scintillation counting method; assay type: cell-based
Chain of Kappa-type opioid receptor (Homo sapiens) (P41145 whole entry): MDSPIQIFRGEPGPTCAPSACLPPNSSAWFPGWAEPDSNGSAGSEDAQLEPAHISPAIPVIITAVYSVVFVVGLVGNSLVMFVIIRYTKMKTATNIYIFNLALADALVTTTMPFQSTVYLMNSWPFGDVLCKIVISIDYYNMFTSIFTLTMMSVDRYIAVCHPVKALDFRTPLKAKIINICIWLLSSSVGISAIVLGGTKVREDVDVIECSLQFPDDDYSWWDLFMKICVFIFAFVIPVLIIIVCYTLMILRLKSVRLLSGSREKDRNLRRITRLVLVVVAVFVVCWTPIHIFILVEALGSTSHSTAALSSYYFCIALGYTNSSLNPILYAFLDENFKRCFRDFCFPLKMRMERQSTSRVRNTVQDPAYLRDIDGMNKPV

[17] = MRT (0 to infinity) in Sprague-Dawley rat plasma at 10 mg/kg, ip after 0.25 to 4 hrs by LC-MS/MS analysis; assay type: ADME, organism-based; details: time 0.25-4 hrs
[18] = Tmax in Sprague-Dawley rat plasma at 10 mg/kg, ip measured after 0.25 to 4 hrs by LC-MS/MS analysis; assay type: ADME, organism-based; details: time 0.25-4 hrs
[19] = target: Sigma non-opioid intracellular receptor 1 (Cavia porcellus) (UniProt Q60492); assay: Ratio of Ki for displacement of [3H]-(+)-pentazocine from sigma-1 receptor to Ki for displacement of [3H]-(+)-pentazocine from sigma-1 receptor in guinea pig brain membranes in presence of phenytoin; assay type: cell membranes; details: Membrane
Chain of Sigma non-opioid intracellular receptor 1 (Cavia porcellus) (Q60492 whole entry): as the sequence (Q60492 whole entry) above

[20] = target: Mu-type opioid receptor (Homo sapiens) (UniProt P35372); assay: Displacement of [3H]-Diprenorphine from recombinant human full-length mu opiod receptor expressed in […] cells at 1 uM incubated for 60 mins by scintillation counting method; assay type: cell-based; details: HEK293
Chain of Mu-type opioid receptor (Homo sapiens) (P35372 whole entry): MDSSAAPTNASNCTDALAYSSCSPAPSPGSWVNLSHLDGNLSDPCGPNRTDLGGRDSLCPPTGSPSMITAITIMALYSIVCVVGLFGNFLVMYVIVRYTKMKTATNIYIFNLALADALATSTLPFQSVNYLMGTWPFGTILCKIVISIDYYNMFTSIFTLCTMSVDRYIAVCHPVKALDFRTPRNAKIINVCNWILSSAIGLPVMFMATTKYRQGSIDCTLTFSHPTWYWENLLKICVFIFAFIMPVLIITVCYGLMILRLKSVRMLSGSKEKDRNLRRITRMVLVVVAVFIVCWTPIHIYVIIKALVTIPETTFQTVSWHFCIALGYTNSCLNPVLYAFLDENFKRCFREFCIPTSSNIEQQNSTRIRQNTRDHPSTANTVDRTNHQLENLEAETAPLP

Rattus norvegicus [21] = assay: Antinociceptive activity in formalin-induced Sprague-Dawley rat model of nociceptive pain assessed as decrease in time spent on licking during acute phase at 40 mg/kg, ip administered 30 mins before formalin stimulation and measured at 5 mins interval for 10 mins; assay type: functional, organism-based; details: time 40.0 min
[22] = Toxicity in Sprague-Dawley rat assessed as effect on motor coordination at 10 to 20 mg/kg, ip measured at 30 to 120 mins post treatment by rotarod test; assay type: organism-based; details: in vivo, dose lower 10 mg/kg, time lower 30 min, dose upper 20 mg/kg, time upper 120 min
[23] = AUC (0 to 4 hrs) in Sprague-Dawley rat plasma at 10 mg/kg, ip after 0.25 to 4 hrs by LC-MS/MS analysis; assay type: ADME, organism-based; parameters: route intraperitoneal, dose 10 mg/kg, time upper 4 hrs, time lower 0.25 hrs
Rattus norvegicus [24] = assay: Antinociceptive activity in formalin-induced Sprague-Dawley rat model of nociceptive pain assessed as decrease in time spent on licking during late phase at 20 to 40 mg/kg, ip administered 30 mins before formalin stimulation and measured at 5 mins interval for 10 to 35 mins; assay type: functional, organism-based; details: dose 20-40 mg/kg
Rattus norvegicus [25] = assay: Analgesic activity in Sprague-Dawley rat model of paclitaxel-induced neuropathic pain assessed as reduction in cold hyperalgesia by measuring increase in paw withdrawal latency at 20 to 40 mg/kg, ip measured at 1 to 2 hrs post dosing by Von Frey assay relative to control; assay type: functional; parameters: scale not given: the % may be the effect or the level left; details: dose 20-40 mg/kg, time 1-2 hrs
[26] = Ratio of drug concentration in brain to plasma in Sprague-Dawley rat at 10 mg/kg, ip by LC-MS/MS analysis; assay type: ADME, organism-based; details: read-out: BPR
[27] = AUC (0 to infinity) in Sprague-Dawley rat plasma at 10 mg/kg, ip after 0.25 to 4 hrs by LC-MS/MS analysis; assay type: ADME, organism-based; parameters: route intraperitoneal, time 0.25-4 hrs, dose 10 mg/kg
Rattus norvegicus [28] = assay: Analgesic activity in Sprague-Dawley rat model of paclitaxel-induced neuropathic pain assessed as decrease in mechanical allodynia by measuring reduction in pain threshold at 100 mg/kg, ip measured at 0.5 to 1.5 hrs by Von Frey assay relative to control; assay type: functional, organism-based; details: time 0.5-1.5 hrs
[29] = Toxicity in Sprague-Dawley rat assessed as effect on motor coordination at 100 mg/kg, ip measured at 60 to 120 mins post treatment by rotarod test; assay type: organism-based; details: in vivo, time 60-120 min
Rattus norvegicus [30] = assay: Analgesic activity in Sprague-Dawley rat model of paclitaxel-induced neuropathic pain assessed as reduction in cold hyperalgesia by measuring increase in paw withdrawal latency at 100 mg/kg, ip measured at 1 to 2 hrs post dosing by Von Frey assay relative to control; assay type: functional, organism-based; details: time 1-2 hrs
Rattus norvegicus [31] = assay: Antinociceptive activity in formalin-induced Sprague-Dawley rat model of nociceptive pain assessed as decrease in time spent on licking during late phase at 100 mg/kg, ip administered 30 mins before formalin stimulation and measured at 5 mins interval for 10 to 35 mins; assay type: functional, organism-based

Cc1cc(-c2nc(CN3CCCC3)nn2C)ccc1C(F)(F)F
half-life at 10 µM [1]: 74.9 min
microsomal CLint at 10 µM [2]: 263 µL/min/mg
microsomal CLint at 10 µM [3]: 9.3 µL/min/mg
half-life at 10 µM [4]: 2.6 min

Cn1nc(CN2CCCC2)nc1-c1cccc(C2(C(F)(F)F)CC2)c1
half-life at 10 µM [1]: 87.6 min
microsomal CLint at 10 µM [2]: 144 µL/min/mg
microsomal CLint at 10 µM [3]: 7.9 µL/min/mg
half-life at 10 µM [4]: 4.8 min

O=C(O)Cc1ccccc1Nc1c(Cl)cccc1Cl [DICLOFENAC]
microsomal CLint at 10 µM [2]: 196 µL/min/mg
microsomal CLint at 10 µM [3]: 189 µL/min/mg

Cn1nc(CN2CCCC2)nc1-c1ccc(C2CC2)cc1
Ki [5]: 1000 nM
Activity [6]: 30%

Cn1nc(CN2CCN(CCc3ccccc3)CC2)nc1-c1ccc(C(C)(C)C)cc1
Ki [7]: 14 nM
Ki [8]: 10 nM
Ki [5]: 17 nM
Ki [9]: 49 nM

Cn1nc(CN2CCOCC2)nc1-c1ccc(C(C)(C)C)cc1
Ki [7]: > 1000 nM

Cc1ccc(-c2nc(CN3CCCC3)nn2C)cc1
Ki [5]: > 1000 nM
Activity [6]: 3%

Cn1nc(CN2CCCC2)nc1-c1ccc(-c2ccccc2)cc1
Activity [10]: 60%
Ki [9]: 90 nM

Cc1ccc(-c2nc(CN3CCCC3)nn2C)cc1C
Ki [5]: > 1000 nM
Activity [6]: 28%

CC(C)c1ccc(-c2nc(CN3CCCC3)nn2C)cc1
Ki [5]: 1000 nM
Ki [9]: 96 nM

Cn1nc(CN2CCCC2)nc1-c1ccc(C(C)(C)C)cc1
Cmax [11]: 932 ng/mL
Ki [7]: 474 nM
half-life at 10 µM [1]: 120 min
Ki [8]: 2.7 nM
activity at 1 µM (hERG (KCNH2)): 8.4%
Ki [12]: 3.4 nM
microsomal CLint at 10 µM [2]: 72 µL/min/mg
Activity [13]: inactive
microsomal CLint at 10 µM [3]: 5.8 µL/min/mg
Activity (Rattus norvegicus [14]): 180%
half-life [15]: 33.6 min
Activity [16]: inactive
half-life at 10 µM [4]: 9.6 min
MRT inf [17]: 43.8 min
Tmax [18]: 15 min
Ratio Ki [19]: 0.8
Activity [20]: inactive
Activity (Rattus norvegicus [21]): Active
Activity [22]: Non-Toxic
Ki [5]: > 1000 nM
AUC(0-t) [23]: 633 ng·h/mL
Ki [9]: 7.5 nM
Activity (Rattus norvegicus [24]): Active
Activity (Rattus norvegicus [25]): 120%
Kp [26]: 12
AUC(0-inf) [27]: 635 ng·h/mL

Cn1nc(CN2CCCCC2)nc1-c1ccc(C(C)(C)C)cc1
Ki [7]: 441 nM

Cn1nc(CN2CCCC2)nc1-c1ccc(-c2ccc(Cl)c(Cl)c2)c(Cl)c1
Activity [10]: 79%
Activity ([6]; filed as antagonist): 43%

Cn1nc(CN2CCCC2)nc1-c1ccc(Oc2ccccc2)cc1
Activity [10]: 65%
Activity [6]: 39%

NCC1(CC(=O)O)CCCCC1 [GABAPENTIN]
Activity (Rattus norvegicus [28]): Active
Activity [29]: Toxic
Activity (Rattus norvegicus [30]): inactive
Activity (Rattus norvegicus [31]): Active

Cn1nc(CN2CCCC2)nc1-c1ccc2c(c1)CCCC2
Ki [9]: 26 nM

O=C(CCCN1CCC(O)(c2ccc(Cl)cc2)CC1)c1ccc(F)cc1 [HALOPERIDOL]
Ki [7]: 4.7 nM

Cn1nc(CN2CCCC2)nc1-c1ccc2cc(Cl)sc2c1
Ki [5]: 1000 nM
